Source: US20230389545A1, “ANTIMICROBIAL COMPOSITION” (The Procter & Gamble Company, priority 2022, published 2023)

How the values were obtained:
Gram Negative = experiment: Surface Antimicrobial Kill Testing Method, activity normalized to triclosan internal standard; format: cell-based; conditions: for antimicrobial activity (in words, comment on Table 1B): composition with nonionic surfactant and non-aqueous solvent; for antimicrobial benefit (in words, comment on Table 2B): DPGME / Surfonic L24-9 composition
Procedure: Inoculum is prepared by streaking microorganism onto a Tryptic Soy Agar (TSA) plate and incubating for 24 h at 33° C. Plated bacteria is resuspended in saline until the transmittance percentage falls within the accepted range for ˜10^8 cfu/mL. For K. pneumonia (Kp) and P. aeruginosa (Pa), this is 31.00-33.00% T. For S. aureus (Sa) this is 23.00-25.00% T. A 10× concentration is made by spinning down the prepared inoculum, removing the supernatant saline from the bacterial pellet, then resuspending the pellet in 1/10th of the original volume of saline. The final inoculum is prepared with 5% of “soil” in the form of Fetal Bovine Serum (FBS).
A 18×18 mm sterile glass coverslip is placed into an appropriate container (e.g. petri dish). 20 μL of prepared inoculum is added to the glass coverslip. Inoculum is then air-dried for 30 minutes in a 36° C. incubator. After drying, 40 μL of test sample is added on top of the dried inoculum. This is incubated at room temperature for the desired contact time. 5 mL of neutralizing media (Modified Letheen Broth+Tween+Lecithin (MLBTL)) is added to the coverslip and shaken on an orbital shaker for 5 minutes to ensure proper neutralization and extraction. Viability is then assessed of the neutralized and extracted sample by traditional/alternative microbiological techniques.
The normalized antimicrobial activity reported in the performance examples below was generated from detection time data obtained as described in the Surface Antimicrobial Kill Test Method. To account for day-to-day variability an internal standard was tested with each series. […] Normalized activity is reported following the equation 1 below.
Normalized Activity=(αΔDT−βΔDT)/(γΔDT−βΔDT) equation 1.
where, αΔDT is the average detection time of the antimicrobial compound, and γΔDT is the average detection time of the reference triclosan internal standard, and βΔDT is the average detection time of the background unperturbed bacteria.
Modified amino acids of the present disclosure were tested as aqueous solutions in the Surface Antimicrobial Kill Testing Method above. To prepare test solutions modified amino acids were first dissolved in the appropriate solvent. Second the selected surfactant is added to the mixture. After vortex (1 min, Vortex-2 Genie, vortex speed 8) mixing, the samples were then diluted with […] of reverse osmosis water (RO water, Millipore Direct-Q™, pH 6). The aqueous solution was then vortexed (1 min, Vortex-2 Genie, vortex speed 8), to which the second ½ portion of water is added. The pH of the solution was then adjusted to the target pH using either 1N HCl, Glacial Acetic Acid, or 1N NaOH. The final solution was then vortexed (1 min, Vortex-2 Genie, vortex speed 8). An example batch sheet is provided below in Table 1.
After treatment, microbial growth is referenced and reported to a triclosan sample and unaltered microbes according to the Normalization of Antimicrobial Activity provided above.

[1] = Stability of the isolated solid followed by 1H NMR; format: physicochemical; conditions: storage

| SMILES | antimicrobial activity (in words, comment on Table 1B) (Gram Negative) | stability of the independent solid by 1H NMR [1] | antimicrobial benefit (in words, comment on Table 2B) (Gram Negative) | antimicrobial efficacy versus pH (in words, comment on Table 3) (Gram Negative; composition pH of about 2 to less than about pH 9) | microbial activity with surfactants (in words, comment on Table 4) (Gram Negative; with non-ionic and amphoteric surfactants, isotropic solutions) |
| --- | --- | --- | --- | --- | --- |
| CCCCCCCCOC(=O)[C@@H](N)Cc1c[nH]c2ccccc12 [Synthetic Example 3] | highest antimicrobial activity | stable for several months |  |  |  |
| CCCCCCCCOC(=O)[C@@H](N)Cc1ccc(O)cc1 [Synthetic Example 5] |  | stable for several months | antimicrobial benefit over the solvent/surfactant alone and over Comparative Example C2 | improved antimicrobial efficacy | improved microbial activity over the aqueous solution of the modified amino acid alone |
| CC(C)(C)OC(=O)[C@@H](N)Cc1c[nH]c2ccccc12 [Synthetic Example 1, L-tryptophan tert-butyl ester] | proved to be antimicrobial | stable for several months |  |  |  |
| CC/C=C\CCCCCOC(=O)[C@@H](N)Cc1ccc(O)cc1 [Synthetic Example 6] |  | stable for several months | antimicrobial benefit over the solvent/surfactant alone and over Comparative Example C2 |  |  |
| CCCCCC(CCC)COC(=O)[C@@H](N)Cc1ccc(O)cc1 (stereo partly shown) [Synthetic Example 7] |  | stable for several months | antimicrobial benefit over the solvent/surfactant alone and over Comparative Example C2 |  |  |
| CCCCCCCCCCCCOC(=O)[C@@H](N)Cc1c[nH]c2ccccc12 [Synthetic Example 4] |  | stable for several months |  |  |  |
